Measurements from ChEMBL document CHEMBL3217607, “Discovery and structural modification of novel inhibitors of PTP1B inspired by the ACT fragment of scleritodermin A” (Medchemcomm, 2011).

Experiments:
[1] = molecular target: T1, Tyrosine-protein phosphatase non-receptor type 1 (Homo sapiens, UniProt P18031); assay: Inhibition of GST-tagged PTP1B (unknown origin) using pNPP as substrate measured for 2 mins by spectrophotometry
T1 sequence (P18031 whole entry): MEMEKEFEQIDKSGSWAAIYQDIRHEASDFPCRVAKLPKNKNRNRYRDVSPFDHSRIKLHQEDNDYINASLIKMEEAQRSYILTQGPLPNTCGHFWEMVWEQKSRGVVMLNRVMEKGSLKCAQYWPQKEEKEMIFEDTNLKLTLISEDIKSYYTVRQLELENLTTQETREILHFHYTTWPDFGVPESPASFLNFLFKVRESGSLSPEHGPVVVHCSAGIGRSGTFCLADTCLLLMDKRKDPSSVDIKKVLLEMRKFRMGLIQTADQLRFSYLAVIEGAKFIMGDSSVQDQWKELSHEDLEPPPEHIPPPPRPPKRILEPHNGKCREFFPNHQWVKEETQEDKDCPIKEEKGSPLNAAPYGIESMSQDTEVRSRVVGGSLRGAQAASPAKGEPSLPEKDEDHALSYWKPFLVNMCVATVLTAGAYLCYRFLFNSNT

[2] = molecular target: T2, Tyrosine-protein phosphatase non-receptor type 2 (Homo sapiens, UniProt P17706); assay: Inhibition of TCPTP (unknown origin)
T2 sequence (P17706 whole entry): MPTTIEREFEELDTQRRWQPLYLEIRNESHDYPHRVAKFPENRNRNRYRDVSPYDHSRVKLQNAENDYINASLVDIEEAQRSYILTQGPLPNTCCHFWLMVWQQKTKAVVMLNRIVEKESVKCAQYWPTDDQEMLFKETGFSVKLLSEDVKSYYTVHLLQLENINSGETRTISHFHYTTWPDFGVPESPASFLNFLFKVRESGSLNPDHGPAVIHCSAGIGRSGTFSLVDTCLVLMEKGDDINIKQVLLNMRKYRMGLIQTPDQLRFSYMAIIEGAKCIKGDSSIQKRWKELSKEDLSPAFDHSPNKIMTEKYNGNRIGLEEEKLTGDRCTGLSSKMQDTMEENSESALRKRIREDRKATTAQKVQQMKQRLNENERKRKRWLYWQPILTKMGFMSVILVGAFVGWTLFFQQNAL

[3] = molecular target: Receptor-type tyrosine-protein phosphatase F (Homo sapiens, UniProt P10586); assay: Inhibition of LAR (unknown origin) using 3-O-Methylfluorescein phosphate as substrate preincubated for 3 mins followed by substrate addition
[4] = molecular target: T3, M-phase inducer phosphatase 2 (Homo sapiens, UniProt P30305); assay: Inhibition of CDC25B (unknown origin) using 3-O-Methylfluorescein phosphate as substrate preincubated for 3 mins followed by substrate addition
T3 sequence (P30305 whole entry): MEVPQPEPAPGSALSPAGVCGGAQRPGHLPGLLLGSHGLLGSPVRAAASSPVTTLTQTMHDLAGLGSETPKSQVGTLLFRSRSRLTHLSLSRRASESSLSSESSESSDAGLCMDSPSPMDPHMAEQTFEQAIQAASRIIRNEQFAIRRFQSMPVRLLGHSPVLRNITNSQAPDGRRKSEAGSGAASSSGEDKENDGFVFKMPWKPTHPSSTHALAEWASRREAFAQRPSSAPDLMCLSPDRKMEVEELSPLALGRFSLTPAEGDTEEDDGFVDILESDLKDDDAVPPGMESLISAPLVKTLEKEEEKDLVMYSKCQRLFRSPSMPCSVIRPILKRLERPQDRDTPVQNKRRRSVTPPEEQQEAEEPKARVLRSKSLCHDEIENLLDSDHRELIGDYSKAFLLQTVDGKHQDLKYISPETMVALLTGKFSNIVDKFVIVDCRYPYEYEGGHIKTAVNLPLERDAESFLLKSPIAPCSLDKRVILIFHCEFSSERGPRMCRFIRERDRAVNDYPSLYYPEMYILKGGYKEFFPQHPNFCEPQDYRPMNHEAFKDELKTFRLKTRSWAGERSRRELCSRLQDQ

[5] = molecular target: T4, Tyrosine-protein phosphatase non-receptor type 11 (Homo sapiens, UniProt Q06124); assay: Inhibition of SHP2 (unknown origin) using 3-O-Methylfluorescein phosphate as substrate preincubated for 3 mins followed by substrate addition
T4 sequence (Q06124 whole entry): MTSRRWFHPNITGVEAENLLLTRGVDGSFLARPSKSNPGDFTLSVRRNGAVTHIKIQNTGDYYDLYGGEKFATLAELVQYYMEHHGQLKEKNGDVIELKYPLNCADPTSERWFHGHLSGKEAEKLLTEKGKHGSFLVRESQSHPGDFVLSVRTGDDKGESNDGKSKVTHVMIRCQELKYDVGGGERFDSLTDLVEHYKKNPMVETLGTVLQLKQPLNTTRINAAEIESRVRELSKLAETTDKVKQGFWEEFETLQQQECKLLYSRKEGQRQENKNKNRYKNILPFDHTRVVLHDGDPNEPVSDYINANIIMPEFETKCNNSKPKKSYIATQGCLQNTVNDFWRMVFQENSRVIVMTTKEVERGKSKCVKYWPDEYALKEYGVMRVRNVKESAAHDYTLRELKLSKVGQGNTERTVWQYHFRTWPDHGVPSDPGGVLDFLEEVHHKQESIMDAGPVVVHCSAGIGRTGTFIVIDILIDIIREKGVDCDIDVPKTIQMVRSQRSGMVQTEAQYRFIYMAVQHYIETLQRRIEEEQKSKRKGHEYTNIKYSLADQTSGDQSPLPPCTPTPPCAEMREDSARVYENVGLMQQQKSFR

[6] = molecular target: Tyrosine-protein phosphatase non-receptor type 6 (Homo sapiens, UniProt P29350); assay: Inhibition of SHP1 (unknown origin) using 3-O-Methylfluorescein phosphate as substrate preincubated for 3 mins followed by substrate addition
Chain of Tyrosine-protein phosphatase non-receptor type 6 (P29350 whole entry): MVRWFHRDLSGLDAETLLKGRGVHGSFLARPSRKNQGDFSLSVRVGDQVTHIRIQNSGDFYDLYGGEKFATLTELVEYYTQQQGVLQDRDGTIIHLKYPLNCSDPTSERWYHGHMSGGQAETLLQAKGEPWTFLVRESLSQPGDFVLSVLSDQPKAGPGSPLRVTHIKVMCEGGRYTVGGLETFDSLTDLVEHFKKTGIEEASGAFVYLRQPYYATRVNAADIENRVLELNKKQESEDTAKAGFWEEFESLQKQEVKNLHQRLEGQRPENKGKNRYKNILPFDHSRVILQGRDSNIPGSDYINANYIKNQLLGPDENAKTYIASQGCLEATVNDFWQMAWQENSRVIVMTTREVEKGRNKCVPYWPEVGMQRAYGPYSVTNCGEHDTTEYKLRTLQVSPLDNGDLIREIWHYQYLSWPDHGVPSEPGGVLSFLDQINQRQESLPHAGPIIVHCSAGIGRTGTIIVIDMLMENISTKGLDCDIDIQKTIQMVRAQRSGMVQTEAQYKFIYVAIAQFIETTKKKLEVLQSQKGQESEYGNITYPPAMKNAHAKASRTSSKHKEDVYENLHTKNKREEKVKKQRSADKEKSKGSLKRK

Chain of Receptor-type tyrosine-protein phosphatase F (P10586 whole entry): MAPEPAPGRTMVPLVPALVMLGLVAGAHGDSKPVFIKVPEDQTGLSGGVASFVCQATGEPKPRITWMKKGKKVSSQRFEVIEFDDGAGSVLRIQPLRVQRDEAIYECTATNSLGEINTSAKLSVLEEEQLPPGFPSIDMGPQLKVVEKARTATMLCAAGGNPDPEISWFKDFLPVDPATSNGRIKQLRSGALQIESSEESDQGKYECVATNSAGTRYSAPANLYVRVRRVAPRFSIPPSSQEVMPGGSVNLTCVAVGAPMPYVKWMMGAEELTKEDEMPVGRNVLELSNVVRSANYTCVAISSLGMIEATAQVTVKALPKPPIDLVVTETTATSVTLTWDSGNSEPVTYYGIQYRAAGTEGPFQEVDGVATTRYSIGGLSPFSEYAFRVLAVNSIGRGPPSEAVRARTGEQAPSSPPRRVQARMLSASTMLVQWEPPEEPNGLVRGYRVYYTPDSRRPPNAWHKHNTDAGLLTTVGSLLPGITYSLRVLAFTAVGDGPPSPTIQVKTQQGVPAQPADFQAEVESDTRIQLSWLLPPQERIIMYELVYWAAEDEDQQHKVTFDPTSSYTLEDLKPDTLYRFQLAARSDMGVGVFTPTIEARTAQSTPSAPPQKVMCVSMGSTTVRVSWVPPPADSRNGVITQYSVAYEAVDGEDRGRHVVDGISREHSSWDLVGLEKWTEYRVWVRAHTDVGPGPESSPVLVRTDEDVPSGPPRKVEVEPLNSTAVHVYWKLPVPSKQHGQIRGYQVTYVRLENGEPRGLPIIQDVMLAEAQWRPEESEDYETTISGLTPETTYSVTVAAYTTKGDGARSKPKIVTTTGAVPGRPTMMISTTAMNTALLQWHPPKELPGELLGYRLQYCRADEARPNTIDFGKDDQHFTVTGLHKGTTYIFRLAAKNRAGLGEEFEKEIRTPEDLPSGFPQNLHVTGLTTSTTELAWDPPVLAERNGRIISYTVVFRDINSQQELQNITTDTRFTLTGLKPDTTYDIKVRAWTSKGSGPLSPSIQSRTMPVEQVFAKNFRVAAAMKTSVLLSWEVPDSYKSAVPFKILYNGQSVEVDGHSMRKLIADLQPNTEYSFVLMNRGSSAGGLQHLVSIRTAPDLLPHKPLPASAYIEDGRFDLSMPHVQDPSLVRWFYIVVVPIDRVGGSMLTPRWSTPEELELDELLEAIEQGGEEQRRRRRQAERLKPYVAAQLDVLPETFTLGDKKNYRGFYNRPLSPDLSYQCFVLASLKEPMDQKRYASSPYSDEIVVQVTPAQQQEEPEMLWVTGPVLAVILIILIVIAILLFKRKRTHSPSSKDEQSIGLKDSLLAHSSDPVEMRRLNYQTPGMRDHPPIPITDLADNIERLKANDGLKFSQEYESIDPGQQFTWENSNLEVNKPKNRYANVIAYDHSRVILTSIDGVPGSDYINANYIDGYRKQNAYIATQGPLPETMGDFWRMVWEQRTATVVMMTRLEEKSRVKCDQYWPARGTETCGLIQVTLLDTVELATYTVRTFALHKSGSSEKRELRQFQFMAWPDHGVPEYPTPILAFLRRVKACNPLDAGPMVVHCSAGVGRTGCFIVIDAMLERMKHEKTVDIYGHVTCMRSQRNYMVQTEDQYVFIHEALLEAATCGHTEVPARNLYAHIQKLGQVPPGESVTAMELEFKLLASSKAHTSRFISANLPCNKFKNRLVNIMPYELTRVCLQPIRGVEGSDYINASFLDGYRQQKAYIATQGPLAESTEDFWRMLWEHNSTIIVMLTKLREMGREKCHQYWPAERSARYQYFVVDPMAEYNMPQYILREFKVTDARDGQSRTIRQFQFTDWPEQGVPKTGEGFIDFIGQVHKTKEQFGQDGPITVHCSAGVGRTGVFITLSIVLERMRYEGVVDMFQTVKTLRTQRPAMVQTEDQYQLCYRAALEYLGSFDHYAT

Structure (SMILES) | IC50 [1] [µM] | IC50 [2] [µM] | IC50 [3] [µM] | IC50 [4] [µM] | IC50 [5] [µM] | IC50 [6] [µM]
CCOC(=O)/C(C)=C\c1csc([C@H](Cc2ccc(OCc3ccccc3)cc2)NC(=O)C2CCCCC2)n1 | > 40 |  |  |  |  | 
CCOC(=O)/C(C)=C\C(C)=C\c1csc([C@H](Cc2ccc(OCc3ccccc3)cc2)NC(=O)c2ccccc2)n1 | > 36 |  |  |  |  | 
CCOC(=O)COC(=O)/C(C)=C\C(C)=C\c1csc(C(Cc2ccc(OCc3ccccc3)cc2)NC(=O)OC(C)(C)C)n1 (single isomer, unassigned) | 7.1 |  |  |  |  | 
COC(=O)CCNC(=O)/C(C)=C\C(C)=C\c1csc(C(Cc2ccc(OCc3ccccc3)cc2)NC(=O)OC(C)(C)C)n1 (single isomer, unassigned) | 15.9 |  |  |  |  | 
CCOC(=O)COC(=O)/C(C)=C\C(C)=C\c1csc([C@H](Cc2ccc(OCc3ccccc3)cc2)NC(=O)CCc2c[nH]c3ccccc23)n1 | 5.43 | 12.8 | > 20 | 3.66 | > 20 | > 20
C/C(=C/C(C)=C/c1csc([C@H](Cc2ccc(OCc3ccccc3)cc2)NC(=O)CCCc2c[nH]c3ccccc23)n1)C(=O)OCC(=O)O | 2.45 | 11.1 | > 20 | 4.38 | > 20 | > 20
CCOC(=O)/C(C)=C\C(C)=C\c1csc([C@H](Cc2ccc(OCc3ccccc3)cc2)NC(=O)C2CCCC2)n1 | 17.9 |  |  |  |  | 
CCOC(=O)COC(=O)/C(C)=C\C(C)=C\c1csc([C@H](Cc2ccc(OCc3ccccc3)cc2)NC(=O)CCCc2c[nH]c3ccccc23)n1 | 3.05 | 12.7 | > 20 | 2.55 | > 20 | > 20
CCOC(=O)/C(C)=C\C(C)=C/c1csc([C@H](Cc2ccc(OCc3ccccc3)cc2)NC(=O)C2CCCCC2)n1 | 13 |  |  |  |  | 
CCOC(=O)/C(C)=C\C(C)=C\c1csc([C@H](Cc2ccc(OCc3ccccc3)cc2)NC(=O)C2CCCCC2)n1 | 9.32 | 15.6 | > 20 | 3.92 | > 20 | > 20
CCCCC(=O)N[C@@H](Cc1ccc(OCc2ccccc2)cc1)c1nc(/C=C(C)/C=C(/C)C(=O)OCC)cs1 | 11.4 |  |  |  |  | 
CCOC(=O)/C(C)=C\C(C)=C\c1csc([C@H](Cc2ccc(OCc3ccccc3)cc2)NC(=O)c2cc3ccccc3s2)n1 | 9.44 |  |  |  |  | 
CCOC(=O)COC(=O)/C(C)=C\C(C)=C\c1csc([C@H](Cc2ccc(OCc3ccccc3)cc2)NC(=O)Cc2c[nH]c3ccccc23)n1 | 5.94 | 14 | > 20 | 2.83 | > 20 | > 20
CCOC(=O)C(C)CC(C)Cc1csc([C@H](Cc2ccc(OCc3ccccc3)cc2)NC(=O)C2CCCCC2)n1 (stereo partly drawn) | > 40 |  |  |  |  | 
CCOC(=O)CCCCOC(=O)/C(C)=C\C(C)=C\c1csc(C(Cc2ccc(OCc3ccccc3)cc2)NC(=O)OC(C)(C)C)n1 (single isomer, unassigned) | 9.66 |  |  |  |  | 
CCOC(=O)/C(C)=C/C(C)=C/c1csc([C@H](Cc2ccc(OCc3ccccc3)cc2)NC(=O)C2CCCCC2)n1 | 19 |  |  |  |  | 

Structure (SMILES) | IC50 [1] [µM] | IC50 [2] [µM] | IC50 [3] [µM] | IC50 [4] [µM] | IC50 [5] [µM] | IC50 [6] [µM]
C/C(=C/C(C)=C/c1csc([C@H](Cc2ccc(OCc3ccccc3)cc2)NC(=O)Cc2c[nH]c3ccccc23)n1)C(=O)OCC(=O)O | 3.68 | 9.98 | > 20 | 4.88 | > 20 | > 20
CCOC(=O)COC(=O)/C(C)=C\C(C)=C\c1csc([C@H](Cc2ccc(OCc3ccccc3)cc2)NC(=O)[C@H](Cc2c[nH]c3ccccc23)NC(C)=O)n1 | 2.08 | 8.84 | > 20 | 2.4 | > 20 | > 20
CC(=O)N[C@@H](Cc1c[nH]c2ccccc12)C(=O)N[C@@H](Cc1ccc(OCc2ccccc2)cc1)c1nc(/C=C(C)/C=C(/C)C(=O)OCC(=O)O)cs1 | 3.01 | 17.7 | > 20 | 5.41 | > 20 | > 20
CCOC(=O)/C(C)=C/C(C)=C\c1csc([C@H](Cc2ccc(OCc3ccccc3)cc2)NC(=O)C2CCCCC2)n1 | 23.9 |  |  |  |  | 
C/C(=C/C(C)=C/c1csc([C@H](Cc2ccc(OCc3ccccc3)cc2)NC(=O)[C@H](Cc2c[nH]c3ccccc23)NC(=O)OC(C)(C)C)n1)C(=O)OCC(=O)O | 1.6 | 4.53 | > 20 | 3.38 | > 20 | > 20
CCOC(=O)/C(C)=C/c1csc([C@H](Cc2ccc(OCc3ccccc3)cc2)NC(=O)C2CCCCC2)n1 | > 40 |  |  |  |  | 
CCOC(=O)CNC(=O)/C(C)=C\C(C)=C\c1csc(C(Cc2ccc(OCc3ccccc3)cc2)NC(=O)OC(C)(C)C)n1 (single isomer, unassigned) | 12.4 |  |  |  |  | 
C/C(=C/C(C)=C/c1csc([C@H](Cc2ccc(OCc3ccccc3)cc2)NC(=O)CCc2c[nH]c3ccccc23)n1)C(=O)OCC(=O)O | 2.32 | 8.72 | > 20 | 4.82 | 19.1 | 15
CCOC(=O)/C(C)=C\C(C)=C\c1csc([C@H](Cc2ccc(OCc3ccccc3)cc2)NC(=O)c2ccc(F)cc2)n1 | 8.92 |  |  |  |  | 
CCOC(=O)/C(C)=C\C(C)=C\c1csc([C@H](Cc2ccc(OCc3ccccc3)cc2)NC(=O)C(C)C)n1 | 16.1 |  |  |  |  | 
C=CCOC(=O)N[C@@H](COC(=O)/C(C)=C\C(C)=C\c1csc([C@H](Cc2ccc(OCc3ccccc3)cc2)NC(=O)OC(C)(C)C)n1)C(=O)N1CCC[C@H]1C(=O)OC(C)(C)C | 4.42 | 3.95 |  |  |  | 
CCOC(=O)c1csc([C@H](Cc2ccc(OCc3ccccc3)cc2)NC(=O)C2CCCCC2)n1 | > 40 |  |  |  |  | 
CCOC(=O)CCCOC(=O)/C(C)=C\C(C)=C\c1csc(C(Cc2ccc(OCc3ccccc3)cc2)NC(=O)OC(C)(C)C)n1 (single isomer, unassigned) | 12.5 |  |  |  |  | 
CCOC(=O)COC(=O)/C(C)=C\C(C)=C\c1csc([C@H](Cc2ccc(OCc3ccccc3)cc2)NC(=O)[C@H](Cc2c[nH]c3ccccc23)NC(=O)OC(C)(C)C)n1 | 5.6 |  |  |  |  | 
CCOC(=O)/C(C)=C\C(C)=C\c1csc([C@H](Cc2ccc(OCc3ccccc3)cc2)NC(=O)c2ccco2)n1 | 18 |  |  |  |  | 
CCOC(=O)/C(C)=C\C(C)=C\c1csc([C@H](Cc2ccc(OCc3ccccc3)cc2)NC(=O)C2CC2)n1 | 19.9 |  |  |  |  | 
